Data from patent US20090227575A1, “7H-PYRROLO[2,3-H]QUINAZOLINE COMPOUNDS, THEIR USE AS mTOR KINASE AND PI3 KINASE INHIBITORS, AND THEIR [sequence]” (Wyeth, priority 2008, published 2009).

Key:
Format in all cases: biochemical
PI3K-alpha = PI3K-alpha (Homo sapiens, UniProt P42336); assay: PI3K-alpha fluorescence polarization assay; settings: read-out: PI3 Kinase α IC50
Protocol: (§1) The reaction buffer was 20 mM HEPES, pH 7.5, 2 mM MgCl2, 0.05% CHAPS; and 0.01% βME (added fresh). The Stop/Detection Buffer was 100 mM HEPES, pH 7.5, 4 mM EDTA, 0.05% CHAPS; ATP 20 mM in water; PIP2 (diC8, Echelon, Salt Lake City Utah cat #P-4508) 1 mM in water (MW=856.5). The GST-GRP was 1.75 mg/mL or 1.4 mg/mL in 10% glycerol. The Red detector (TAMRA) was 2.5 μM. Nunc 384-well black polypropylene fluorescent plates were used for PI3K assays.
(§2) The assay is run by placing 5 μL of diluted enzyme per well, then 5 μL of diluted compound (or 9.5 μL enzyme then 0.5 μL compound in DMSO) is added and mixed. Then, 10 μL substrate is added to start the reaction. The samples are incubated 30-60 minutes, then the reaction is stopped by adding 20 μL stop/detector mix. PI3K is diluted with reaction buffer (e.g., 5 μL or 7.5 μL PI3K into 620 μL reaction buffer), and 5 μL of diluted enzyme is used per well. A 5 μL portion of reaction buffer or of drug diluted in buffer (e.g., 4 μL/100 so final DMSO is 1% in reaction) is added to each. Pipetting up and down mixes the samples. Alternatively, the enzyme can be diluted to 1215 μL. In this case 9.8 μL is added per well and 0.2 μL compound is added in DMSO.
(§3) To prepare 1 mL of substrate solution, 955 μL reaction buffer, 40 μL PIP2, and 2.5 μL ATP are mixed. 10 μL of substrate is added to each well to start the reaction. […] The stop/detector mix is prepared by mixing 4 μL Red detector and 1.6 μL or 2.0 μL GST-GRP with 1 mL stop buffer, which results in 10 nM probe and 70 nM GST-GRP. 20 μL of the stop/detector mix is added to each well to stop the reaction. The plates are read after 30-90 minutes keeping the red probe solutions dark. For the zero time point, stop/detector mix is added to the enzyme just before adding substrate. For an extra control, stop/detector mix is added to buffer (no enzyme) and substrate or to just buffer (no substrate). […] The recommended reaction has 0.06 μL per 20 μL (0.015 μg/20 μL) or 0.01125 μg/15 μL or 0.75 μg/mL.
(§4) Plates are read on machines with filters for TAMRA. The units are mP with no enzyme controls reading app 190-220 mP units. Fully active enzyme reduces fluorescence polarization down to 70-100 mP after 30 minutes. An active compound raises the mP values halfway to control or to 120-150 mP units.

PI3K-gamma = PI3K-gamma (Homo sapiens, UniProt P48736); assay: PI3K-gamma fluorescence polarization assay; settings: read-out: PI3 Kinase γ IC50
Chain of PI3K-gamma (P48736 whole entry, species assumed): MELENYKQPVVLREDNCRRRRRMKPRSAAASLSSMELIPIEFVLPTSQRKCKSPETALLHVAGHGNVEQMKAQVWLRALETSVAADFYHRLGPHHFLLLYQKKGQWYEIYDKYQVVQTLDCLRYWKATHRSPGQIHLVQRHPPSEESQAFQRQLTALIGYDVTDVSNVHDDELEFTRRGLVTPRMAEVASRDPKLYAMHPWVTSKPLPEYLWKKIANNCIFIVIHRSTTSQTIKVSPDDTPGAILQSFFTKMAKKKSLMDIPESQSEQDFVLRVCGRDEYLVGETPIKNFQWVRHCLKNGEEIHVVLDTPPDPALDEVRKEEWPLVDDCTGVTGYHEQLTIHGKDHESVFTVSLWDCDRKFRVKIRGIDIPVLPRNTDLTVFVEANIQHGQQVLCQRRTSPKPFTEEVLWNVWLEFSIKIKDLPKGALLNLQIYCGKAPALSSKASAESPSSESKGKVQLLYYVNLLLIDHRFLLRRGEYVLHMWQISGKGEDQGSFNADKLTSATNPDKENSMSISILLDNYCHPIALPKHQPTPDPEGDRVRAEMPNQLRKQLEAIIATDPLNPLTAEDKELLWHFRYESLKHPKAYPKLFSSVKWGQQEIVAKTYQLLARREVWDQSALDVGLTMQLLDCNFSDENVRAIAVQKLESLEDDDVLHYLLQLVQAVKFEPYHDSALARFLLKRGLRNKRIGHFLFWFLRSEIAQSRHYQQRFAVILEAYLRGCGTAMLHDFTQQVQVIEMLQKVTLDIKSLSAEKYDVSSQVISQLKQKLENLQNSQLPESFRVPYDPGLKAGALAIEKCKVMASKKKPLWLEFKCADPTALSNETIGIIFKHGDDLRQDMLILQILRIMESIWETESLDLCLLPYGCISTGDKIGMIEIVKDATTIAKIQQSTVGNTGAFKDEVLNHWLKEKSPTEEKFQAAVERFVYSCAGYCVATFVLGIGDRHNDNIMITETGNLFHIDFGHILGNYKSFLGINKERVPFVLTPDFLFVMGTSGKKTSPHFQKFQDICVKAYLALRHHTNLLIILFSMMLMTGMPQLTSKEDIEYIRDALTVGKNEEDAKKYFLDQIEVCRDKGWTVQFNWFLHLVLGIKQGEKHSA
Protocol: as §1, §2, §3, §4

Human mTOR = Human mTOR (Homo sapiens, UniProt P42345); assay: mTOR kinase assay (DELFIA format, purified enzyme); set-up: FLAG; settings: read-out: TOR Kinase IC50

Chain of PI3K-alpha (P42336 whole entry, species assumed): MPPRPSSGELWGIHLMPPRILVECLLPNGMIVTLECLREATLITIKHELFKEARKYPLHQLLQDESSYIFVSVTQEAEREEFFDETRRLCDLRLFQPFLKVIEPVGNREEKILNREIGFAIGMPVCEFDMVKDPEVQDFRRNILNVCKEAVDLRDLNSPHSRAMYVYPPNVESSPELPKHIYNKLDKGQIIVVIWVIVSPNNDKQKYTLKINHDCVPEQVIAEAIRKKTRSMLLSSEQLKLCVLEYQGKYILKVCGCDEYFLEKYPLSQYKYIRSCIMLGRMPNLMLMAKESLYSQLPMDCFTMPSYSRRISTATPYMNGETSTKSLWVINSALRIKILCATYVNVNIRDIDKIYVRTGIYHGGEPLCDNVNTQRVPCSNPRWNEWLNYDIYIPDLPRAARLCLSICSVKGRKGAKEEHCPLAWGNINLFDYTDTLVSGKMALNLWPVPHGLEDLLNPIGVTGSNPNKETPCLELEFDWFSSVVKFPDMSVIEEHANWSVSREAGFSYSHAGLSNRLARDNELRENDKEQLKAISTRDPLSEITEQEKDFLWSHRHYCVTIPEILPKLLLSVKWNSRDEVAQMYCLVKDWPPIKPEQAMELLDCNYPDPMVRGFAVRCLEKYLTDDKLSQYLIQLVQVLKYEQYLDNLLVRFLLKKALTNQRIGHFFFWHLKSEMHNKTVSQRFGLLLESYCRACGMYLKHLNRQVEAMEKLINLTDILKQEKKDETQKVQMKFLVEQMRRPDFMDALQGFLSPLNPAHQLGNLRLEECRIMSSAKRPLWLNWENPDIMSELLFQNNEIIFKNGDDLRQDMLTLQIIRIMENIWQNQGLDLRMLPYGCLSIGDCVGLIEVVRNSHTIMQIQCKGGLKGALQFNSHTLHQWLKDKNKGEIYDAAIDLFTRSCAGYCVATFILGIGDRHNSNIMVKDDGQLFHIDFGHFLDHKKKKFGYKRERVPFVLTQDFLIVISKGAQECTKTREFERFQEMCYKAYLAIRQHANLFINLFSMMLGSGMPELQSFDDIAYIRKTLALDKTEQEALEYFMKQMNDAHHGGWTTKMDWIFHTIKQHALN
Chain of PI3K-alpha (P27986 whole entry partner, species assumed): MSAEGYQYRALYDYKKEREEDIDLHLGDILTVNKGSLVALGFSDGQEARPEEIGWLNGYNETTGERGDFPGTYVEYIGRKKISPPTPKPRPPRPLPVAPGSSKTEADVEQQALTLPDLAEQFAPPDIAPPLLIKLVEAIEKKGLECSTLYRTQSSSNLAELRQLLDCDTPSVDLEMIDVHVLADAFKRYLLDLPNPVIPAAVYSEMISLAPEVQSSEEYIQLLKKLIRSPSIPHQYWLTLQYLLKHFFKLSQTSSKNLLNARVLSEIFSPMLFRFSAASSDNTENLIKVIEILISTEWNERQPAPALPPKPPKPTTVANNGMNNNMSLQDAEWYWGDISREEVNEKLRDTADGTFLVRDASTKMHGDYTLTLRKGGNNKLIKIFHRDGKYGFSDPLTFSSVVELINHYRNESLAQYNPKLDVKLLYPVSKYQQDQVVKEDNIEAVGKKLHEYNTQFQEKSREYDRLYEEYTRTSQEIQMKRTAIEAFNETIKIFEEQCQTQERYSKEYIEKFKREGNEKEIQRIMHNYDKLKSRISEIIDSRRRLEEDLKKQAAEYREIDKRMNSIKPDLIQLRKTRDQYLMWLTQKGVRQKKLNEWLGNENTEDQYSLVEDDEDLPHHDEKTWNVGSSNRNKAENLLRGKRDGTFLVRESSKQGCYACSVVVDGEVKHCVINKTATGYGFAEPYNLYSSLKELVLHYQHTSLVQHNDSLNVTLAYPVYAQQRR

Row | IC50 (PI3K-alpha) [nM] | IC50 (PI3K-gamma) [nM] | IC50 (Human mTOR) [nM] | SMILES
1 | 514 | 3580 | 235 | OCc1cccc(-c2nc(N3CCOCC3)c3ccc4[nH]ccc4c3n2)c1 [Example 57]
2 | > 10000 | > 10000 | 16500 | COCOc1cncc(-c2nc(N3CCOCC3)c3ccc4c(ccn4S(C)(=O)=O)c3n2)c1 [Example 75, 2-[5-(methoxymethoxy)pyridin-3-yl]-7-(methylsulfonyl)-4-morpholin-4-yl-7H-pyrrolo[2,3-h]quinazoline]
3 | 8400 | 6160 | 5300 | Cn1ccc2c3nc(-c4ccc(NS(=O)(=O)c5ccccc5)cc4)nc(N4CCOCC4)c3ccc21 [Example 22, N-[4-(7-methyl-4-morpholin-4-yl-7H-pyrrolo[2,3-h]quinazolin-2-yl)phenyl]benzenesulfonamide]
4 | 1760 | 4000 | 1600 | COC(=O)c1ccc(-c2nc(N3CCOCC3)c3ccc4c(ccn4C)c3n2)cc1 [Example 36, Methyl 4-(7-methyl-4-morpholin-4-yl-7H-pyrrolo[2,3-h]quinazolin-2-yl)benzoate]
5 | 274 | 1130 | 1110 | O=S(=O)(c1ccccc1)n1ccc2c3nc(-c4cccc(O)c4)nc(N4CCOCC4)c3ccc21 [Example 69, 3-[4-morpholin-4-yl-7-(phenylsulfonyl)-7H-pyrrolo[2,3-h]quinazolin-2-yl]phenol]
6 | 123 | 320 | 1700 | OCc1cccc(-c2nc(N3CCOCC3)c3ccc4c(ccn4Cc4ccccc4)c3n2)c1 [Example 83, [3-(7-benzyl-4-morpholin-4-yl-7H-pyrrolo[2,3-h]quinazolin-2-yl)phenyl]methanol]
7 | 2970 | 4070 | 3800 | Cn1ccc2c3nc(-c4cccc(C(O)c5ccccc5)c4)nc(N4CCOCC4)c3ccc21 (stereo not drawn) [Example 29, [3-(7-methyl-4-morpholin-4-yl-7H-pyrrolo[2,3-h]quinazolin-2-yl)phenyl](phenyl)methanol]
8 | 3310 | 2090 | 390 | CCOC(=O)Nc1ccc(-c2nc(N3CCOCC3)c3ccc4c(ccn4C)c3n2)cc1 [Example 20, ethyl [4-(7-methyl-4-morpholin-4-yl-7H-pyrrolo[2,3-h]quinazolin-2-yl)phenyl]carbamate]
9 | 428 | 5390 | 66 | CNC(=O)Nc1ccc(-c2nc(N3CCOCC3)c3ccc4c(ccn4C)c3n2)cc1 [Example 2, 1-methyl-3-[4-(7-methyl-4-morpholin-4-yl-7H-pyrrolo[2,3h]quinazolin-2-yl)phenyl]urea]
10 | 12000 | 6170 | 1250 | Cn1ccc2c3nc(-c4ccc(NC(=O)c5ccc(F)cc5)cc4)nc(N4CCOCC4)c3ccc21 [Example 19, 4-fluoro-N-[4-(7-methyl-4-morpholin-4-yl-7H-pyrrolo[2,3-h]quinazolin-2-yl)phenyl]benzamide]
11 | 455 | 4950 | 9150 | CN(C)CCn1ccc2c3nc(-c4cccc(CO)c4)nc(N4CCOCC4)c3ccc21 [Example 30, (3-{7-[2-(dimethylamino)ethyl]-4-morpholin-4-yl-7H-pyrrolo[2,3-h]quinazolin-2-yl}phenyl)methanol]
12 | 4340 | 6160 | 525 | CN(C)S(=O)(=O)Nc1cccc(-c2nc(N3CCOCC3)c3ccc4c(ccn4C)c3n2)c1 [Example 55, N,N-dimethyl-N′-[3-(7-methyl-4-morpholin-4-yl-7H-pyrrolo[2,3-h]quinazolin-2-yl)phenyl]sulfamide]
13 | 216 | 209 | 420 | Oc1cccc(-c2nc(N3CCOCC3)c3ccc4c(ccn4Cc4ccccc4)c3n2)c1 [Example 46, 3-(7-benzyl-4-morpholin-4-yl-7H-pyrrolo[2,3-h]quinazolin-2-yl)phenol]
14 | 6590 | 6660 | 2800 | C=CCC(O)c1cccc(-c2nc(N3CCOCC3)c3ccc4c(ccn4C)c3n2)c1 (stereo not drawn) [Example 27, 1-[3-(7-methyl-4-morpholin-4-yl-7H-pyrrolo[2,3-h]quinazolin-2-yl)phenyl]but-3-en-1-ol]
15 | 111 | 147 | 16 | O=Cc1c[nH]c2ccc3c(N4CCOCC4)nc(-c4cccc(O)c4)nc3c12 [Example 82, 2-(3-hydroxyphenyl)-4-morpholin-4-yl-7H-pyrrolo[2,3-h]quinazoline-9-carbaldehyde]
16 | 239 | 634 | 125 | Cn1ccc2c3nc(-c4ccc(NC(=O)Nc5ccc(C(F)(F)F)cc5)cc4)nc(N4CCOCC4)c3ccc21 [Example 14, 1-[4-(7-methyl-4-morpholin-4-yl-7H-pyrrolo[2,3-h]quinazolin-2-yl)phenyl]-3-[4-(trifluoromethyl)phenyl]urea]
17 | 616 | 3590 | 630 | Cn1ccc2c3nc(-c4ccc(N)nc4)nc(N4CCOCC4)c3ccc21 [Example 42, 5-(7-methyl-4-morpholin-4-yl-7H-pyrrolo[2,3-h]quinazolin-2-yl)pyridin-2-amine]
18 | 4460 | 5620 | 1450 | Cn1ccc2c3nc(-c4ccc(NC(=O)c5ccncc5)cc4)nc(N4CCOCC4)c3ccc21 [Example 18, N-[4-(7-methyl-4-morpholin-4-yl-7H-pyrrolo[2,3-h]quinazolin-2-yl)phenyl]isonicotinamide]
19 | 775 | 4890 | 1350 | CC(C)(C)OC(=O)Cn1ccc2c3nc(-c4ccc(N)nc4)nc(N4CCOCC4)c3ccc21 [Example 60, tert-butyl [2-(6-aminopyridin-3-yl)-4-morpholin-4-yl-7H-pyrrolo[2,3-h]quinazolin-7-yl]acetate]
20 | 62 | 198 | 63 | CS(=O)(=O)n1ccc2c3nc(-c4cnc(N)nc4)nc(N4CCOCC4)c3ccc21 [Example 73, 5-[7-(methylsulfonyl)-4-morpholin-4-yl-7H-pyrrolo[2,3-h]quinazolin-2-yl]pyrimidin-2-amine]
21 | 2000 | 1330 | 355 | CC(C)c1ccc(NC(=O)Nc2ccc(-c3nc(N4CCOCC4)c4ccc5c(ccn5C)c4n3)cc2)cc1 [Example 12, 1-(4-isopropylphenyl)-3-[4-(7-methyl-4-morpholin-4-yl-7H-pyrrolo[2,3-h]quinazolin-2-yl)phenyl]urea]
22 | 2510 | 4520 | 2700 | CC(C)CC(O)c1cccc(-c2nc(N3CCOCC3)c3ccc4c(ccn4C)c3n2)c1 (stereo not drawn) [Example 28, 3-methyl-1-[3-(7-methyl-4-morpholin-4-yl-7H-pyrrolo[2,3-h]quinazolin-2-yl)phenyl]butan-1-ol]
23 | 74 | 313 | 44 | CCN1CCC(S(=O)(=O)n2ccc3c4nc(-c5ccc(NC(=O)Nc6ccncc6)cc5)nc(N5CCOCC5)c4ccc32)CC1 [Example 64, 1-(4-{7-[(1-ethylpiperidin-4-yl)sulfonyl]-4-morpholin-4-yl-7H-pyrrolo[2,3-h]quinazolin-2-yl}phenyl)-3-pyridin-4-ylurea]
24 | 9360 | 9500 | 4000 | CC(=O)NCc1cccc(-c2nc(N3CCOCC3)c3ccc4c(ccn4C)c3n2)c1 [Example 44, N-[3-(7-methyl-4-morpholin-4-yl-7H-pyrrolo[2,3-h]quinazolin-2-yl)benzyl]acetamide]
25 | 231 | 1580 | 670 | O=S(=O)(C1CCNCC1)n1ccc2c3nc(-c4cccc(O)c4)nc(N4CCOCC4)c3ccc21 [Example 67, 3-[4-morpholin-4-yl-7-(piperidin-4-ylsulfonyl)-7H-pyrrolo[2,3-h]quinazolin-2-yl]phenol]
26 | 4010 | 5160 | 3250 | O=S(=O)(c1ccccc1)n1ccc2c3nc(-c4cccc5[nH]ncc45)nc(N4CCOCC4)c3ccc21 [Example 72, 2-(1H-indazol-4-yl)-4-morpholin-4-yl-7-(phenylsulfonyl)-7H-pyrrolo[2,3-h]quinazoline]
